Consider 3 compounds from PMC9581852, “Organic Cation Transporter-Mediated Accumulation of Quinolinium Salts in the LV Myocardium of Rodents” (Molecular Imaging and Biology, 2022).

Type in all cases: cell-based
Test [1] has as its target T1, hOCT3 (organic cation transporter 3) (Homo sapiens, UniProt O75751).
T1 construct: gene SLC22A3
T1 sequence (O75751 1-556): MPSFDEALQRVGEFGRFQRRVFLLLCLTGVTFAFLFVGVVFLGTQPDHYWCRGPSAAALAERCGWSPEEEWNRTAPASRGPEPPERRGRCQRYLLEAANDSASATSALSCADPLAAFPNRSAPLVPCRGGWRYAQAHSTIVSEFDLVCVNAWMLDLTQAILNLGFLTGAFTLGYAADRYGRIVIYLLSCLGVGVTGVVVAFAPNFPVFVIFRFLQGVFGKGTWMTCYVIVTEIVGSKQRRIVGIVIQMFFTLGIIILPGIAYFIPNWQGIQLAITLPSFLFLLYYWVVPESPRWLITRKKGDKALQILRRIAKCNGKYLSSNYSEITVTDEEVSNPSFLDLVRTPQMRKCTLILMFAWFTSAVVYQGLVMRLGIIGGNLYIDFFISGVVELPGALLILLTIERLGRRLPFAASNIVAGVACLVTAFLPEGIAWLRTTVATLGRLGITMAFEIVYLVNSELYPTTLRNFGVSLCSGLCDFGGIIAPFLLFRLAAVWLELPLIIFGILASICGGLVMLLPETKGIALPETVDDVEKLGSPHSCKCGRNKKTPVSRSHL
As to the kind of experiment: radioligand saturation binding/uptake in intact HEK293-hOCT3 cells, empty-vector cells as non-specific binding.

The target in test [2] is T1, hOCT3 (organic cation transporter 3). In words: inhibition of […]FEtQ uptake in HEK293 cells stably expressing hOCT3.
Test [3] has as its target T2, hOCT2 (organic cation transporter 2) (Homo sapiens, UniProt O15244).
T2 construct: gene SLC22A2
T2 sequence (O15244 1-555): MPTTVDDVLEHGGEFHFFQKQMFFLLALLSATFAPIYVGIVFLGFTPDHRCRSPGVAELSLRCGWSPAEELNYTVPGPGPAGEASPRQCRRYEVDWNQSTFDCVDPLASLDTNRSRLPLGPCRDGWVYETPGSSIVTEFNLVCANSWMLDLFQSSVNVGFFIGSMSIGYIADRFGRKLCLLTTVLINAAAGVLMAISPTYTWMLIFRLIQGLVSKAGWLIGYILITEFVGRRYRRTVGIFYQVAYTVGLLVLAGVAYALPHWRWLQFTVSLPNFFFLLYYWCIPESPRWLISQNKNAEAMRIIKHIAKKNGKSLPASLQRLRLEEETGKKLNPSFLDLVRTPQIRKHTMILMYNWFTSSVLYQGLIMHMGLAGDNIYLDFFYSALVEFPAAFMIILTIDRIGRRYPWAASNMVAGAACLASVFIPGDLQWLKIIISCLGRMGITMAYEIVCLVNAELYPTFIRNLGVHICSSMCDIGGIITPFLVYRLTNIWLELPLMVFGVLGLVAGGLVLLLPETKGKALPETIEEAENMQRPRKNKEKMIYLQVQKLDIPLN
In words: in vivo PET/CT blocking of […]FEtQ uptake in HEK-hOCT2 xenografts in mice.

By Kd is commonly meant a measure of binding affinity in units of concentration. Usually IC50 stands for the point on the concentration scale where inhibition reaches its midpoint. Read a low IC50 as higher potency.

As to `FCC[n+]1cccc2ccccc21` [[18F]FEtQ], the dissociation constant Kd in test [1] was determined as 214 ± 114 µM.
As for `C[C@]12C[C@H](O)[C@H]3[C@@H](CCC4=CC(=O)CC[C@@]43C)[C@@H]1CC[C@@H]2C(=O)CO` [corticosterone], the IC50 in test [2] was in the range of 0.05 to 0.5 µM.
For the compound `CCN1/C(=C/c2ccc3ccccc3[n+]2CC)C=Cc2ccccc21` [decynium 22], the “% lower peak tumor uptake at 0.075 mg/kg” value in test [3] is given as 40 % lower peak tumor uptake at 0.075 mg/kg.
